# Experimental data reported in patent publication US20020151481A1, “MMP-2 propeptide for use as antiangiogenic or antitumor agent” (priority 2000, published 2002).
# Experiment: Viability of cultured chondrosarcoma cells (crystal violet nuclear staining, OD590)
# Type: cell-based
# Conditions: human, human chondrosarcoma cell line; crystal violet OD590 (FIG. 5); concentration not given; read-out: decrease in viable cell number
# Protocol: Animal Cell Experiments. The effects of the MMP-2 propeptide on viability and metabolism of cultured animal cells was observed. A human chondrosarcoma cell line was cultured in both the presence and absence of 50 μg/ml recombinant MMP-2 propeptide (serum-free). Cultures were observed over a 48 hours period. Cell viability was monitored via crystal violet nuclear staining and absorption spectroscopy (OD590). Absorbance is proportional to cell number (Gillies, 1986, Anal. Biochem. 159:109-113). […] That MMP-2 had no effect on the cultured cancer cell line was not unexpected since the effects of angiogenesis inhibitors (such as angiostatin and endostatin) are believed to be restricted to […] endothelial cells.
smiles,measurement,value
COc1cc2c(cc1O)CCN[C@]21CS[C@@H]2c3c(OC(C)=O)c(C)c4c(c3[C@H](COC1=O)N1[C@@H]2[C@H]2c3c(cc(C)c(OC)c3O)C[C@@H]([C@@H]1O)N2C)OCO4 [ET-743],cytotoxicity at 48 h,50%
